Results from patent US20220323443A1, “COMBINATION THERAPY FOR CANCER TREATMENT” (TAKEDA PHARMACEUTICAL COMPANY LIMITED, priority 2019, published 2022).

Key:
PHTXM-90Es (Esophagus) = assay: In vivo combination study, Patient Derived Xenograft; design: species or system mouse
Description: (§1) To investigate in vivo antitumor activity of Compound 1 in combination with other agents, tests using Cell Derived Xenograft (CDX), Patient Derived Xenograft (PDX) and Syngeneic mouse tumor isograft model were conducted. Cells or Patient Derived Tumors were inoculated by one method of the following two methods (Method A and B) as shown Table 7.
(§2) Method A; Cells were maintained in either immune deficient nude mice or immune competent mice by subcutaneous inoculation of tumor cells at various concentrations into respected mice. Method B: Patient Derived Tumor s were maintained in nude mice by subcutaneous inoculation of tumor pieces (approx. 2×2×2 mm) into nude mice. Mice with tumor size of approximately 50 mm^3 (e.g., 40-75 mm^3) for syngeneic mouse studies or 200 mm^3 (e.g., 110-270 mm^3) for xenograft studies were randomly assigned to dose groups on the day (Day 0) before start date of dosing.
(§3) Compound 1 (crystalline form I) was suspended in 0.5 w/v % methylcellulose and administered orally to mice. Antibodies which administered in the experiment were described in Table 8.
(§4) Tumor size was measured by caliper and tumor volume was estimated using the equation V=(LW^2)/2, where L and W are tumor length and width, respectively and reported in cubic millimeters.
(§5) These values were compared across treatment groups to assess whether the differences in the trends over time were statistically significant. To compare pairs of treatment groups, the following mixed-effects linear regression model was fit to the data using the maximum likelihood method:
(§6) For synergy analyses, the observed differences in the log tumor values were used to calculate AUC values for each animal. In instances when an animal in a treatment group was removed from the study, the last observed tumor value was carried forward through all subsequent time points. The AUC for the control, or vehicle, group was calculated using the predicted values from the pairwise models described above. We defined a measure of synergy as follows:
(§7) where Ak and Bk are the k^th animal in the individual treatment groups and ABk is the k^th animal in combination treatment group. AUCcd is the model-predicted AUC for the control group and was treated as a constant with no variability. The standard error of the synergy score was calculated as the square root of the sum of squared standard errors across groups A, B, and AB. The degrees of freedom were estimated using the Welch-Satterthwaite equation. A hypothesis test was performed to determine if the synergy score differed from 0. P values were calculated by dividing the synergy score by its standard error and tested against a t-distribution (two-tailed) with the above-calculated degrees of freedom.
(§8) The effect was classified into four different categories. It was considered synergistic if the synergy score was less than 0 and additive if the synergy score wasn't statistically different from 0. If the synergy score was greater than zero, but the mean AUC for the combination was lower than the lowest mean AUC among the two single agent treatments, then the combination was sub-additive. If the synergy score was greater than zero, and the mean AUC for the combination was greater than the mean AUC for at least one of the single agent treatments, then the combination was antagonistic.

[1] = system: PHTXM-35Es human primary esophagus cancer xenografts; assay: as above; design: species or system mouse
Description: as §1, §2, §3, §4, §5, §6, §7, §8

[2] = system: PHTXM-79Es human primary esophagus cancer xenografts; assay: as above; design: species or system mouse; key to Result (combination with Compound 1, tumor growth): synergistic if the synergy score was less than 0; additive if the synergy score wasn't statistically different from 0; If the synergy score was greater than zero, but the mean AUC for the combination was lower than the lowest mean AUC among the two single agent treatments, then the combination was sub-additive; If the synergy score was greater than zero, and the mean AUC for the combination was greater than the mean AUC for at least one of the single agent treatments, then the combination was antagonistic; conditions: for antitumor activity: combined with Compound 1, PHTXM-79Es human primary esophagus cancer xenografts
Description: as §1, §2, §3, §4, §5, §6, §7, §8

HCT116 cancer cells = assay: In vitro combination study with Compound 1, Cell Titer-Glo (ATP) cell viability, 72 h; format: cell-based; conditions: Table 5 drug combined with Compound 1; 72 h;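 further: combination call from 10×10 dose matrices in duplicate, graded by synergy, with percent activity per well relative to DMSO vehicle controls on the same plate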
COLO205 cancer cells = assay: as above; format: cell-based, human; conditions: Table 5 drug combined with Compound 1; 72 h;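 further: Ten-by-ten dose matrices of both agents in duplicate plus single-agent dilutions, luminescent ATP read-out, percent activity per well relative to DMSO vehicle wells, synergy call from these matrices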
H460 cancer cells = assay: as above; format: cell-based; conditions: Table 5 drug combined with Compound 1; 72 h;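 further: Ten-by-ten dose matrices of both drugs alongside single-agent dilutions, luminescence read 72 hours after compound addition, percent activity per well versus vehicle (DMSO) plate controls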
Description: (§10) Each combination pair was evaluated in an individual 384-well plate which contained variable doses of both compounds as single agents, as well as two, ten-by-ten matrices (in duplicate) that contained mixtures of the two test compounds. In brief, compounds were added to the cell test plates 16 hours after cell plating and then assessed for viability 72 hours later. Continuous cultures of tumor cells were maintained under standard cell culturing conditions (i.e. in a humidified chamber set at 37° C., containing atmosphere 5% carbon dioxide). […] Seventy-two hours after compound addition, ATP levels were measured to assess cell viability. Plating densities were chosen to ensure optimal linear growth over the 72 hour period.
(§11) Compound dilution and compound delivery to the assay plates were done on HighRes Robotic System (HighRes Biosolutions, Woburn, Mass., USA) with Echo™ Liquid Handler (Labcyte, Sunnyvale, Calif., USA). […] Next, these were used for compound transfer into cell assay plates. All wells were back-filled to give a constant percentage of DMSO.
(§12) The final DMSO concentration was held constant in all wells across the plate and was maintained at less than 0.5%. […] Cells treated with vehicle (DMSO) in two rows, or single compound serial dilutions in one plate columns/row served as the untreated control and single compound controls, respectively.
(§13) Compound activity in A549, COLO205, H460, HCT116, SW48, SW620 cancer cell lines was assessed using Cell Titer-Glo® (Promega [Madison, Wis., USA]). After 72 hours incubation, the plates were treated as per package insert protocol for the Promega Luminescence ATP Detection Systems. Briefly, 25 μL of cell lysis/substrate solution (provided in kit form) was added to each well and the plate was incubated at room temperature for 10 minutes. Luminescence was measured using a PHERAstar multi-label counter (BMG Labtech [Ortenberg, Germany]) or LEADseeker (GE Healthcare Life Sciences [Piscataway, N.J., USA]).
(§14) Numerical luminescence values were analyzed to generate EC50 curves and evaluate synergy. Raw Data reader files were uploaded along with automation workfiles that defined the plate and well contents. Percent activities were calculated for each well versus plate controls.
(§15) Each plate representing a single drug combination was analyzed separately. First, the viability measurements were normalized by scaling the data so that the median of the negative controls was 0 and the median of the positive controls was 100.
(§16) For the combination analysis, a response surface model was used to describe the relationship between the normalized viability and the drug concentrations. The data were fit to the model by minimizing the residual sum of squares. Based on the fitted response surface, plots of constant viability, called isobolograms, were produced.
(§17) The Combination Index and Nonlinear Blending were used as measures of drug synergy. To calculate Combination Index the 50% isobologram (which is the dose contour that has 50% viability) was used. […] A standard procedure was created to produce a call in order to characterize the viability effects for each combination (synergy, additivity, subadditivity, or antagonism). If the Combination Index existed then these measures were used to make the call.

A549 cancer cells = assay: as above; format: cell-based; conditions: Table 5 drug combined with Compound 1; 72 h;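 further: Ten-by-ten dose matrices of the two agents in duplicate, compounds added 16 h post-plating, activity relative to DMSO vehicle wells, call reflects synergy evaluation from luminescence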
Description: as §10, §11, §12, §13, §14, §15, §16, §17

DU-145 (Prostate) = assay: In vivo combination study, Cell Derived Xenograft; design: species or system mouse; conditions: DU-145 (165 mm^3); Compound 1 60 mg/kg once daily Day 1-21; drug 10 mg/kg intravenously once weekly Days 1,8,15
Description: as §1
Method A; Cells were maintained in either immune deficient nude mice or immune competent mice by subcutaneous inoculation of tumor cells at various concentrations into respected mice. Method B: Patient Derived Tumor s were maintained in nude mice by subcutaneous inoculation of tumor pieces (approx. 2×2×2 mm) into nude mice. […]
Tumor size was measured by caliper and tumor volume was estimated using the equation V=(LW^2)/2, where L and W are tumor length and width, respectively and reported in cubic millimeters. […]
For synergy analyses, the observed differences in the log tumor values were used to calculate AUC values for each animal. […] The AUC for the control, or vehicle, group was calculated using the predicted values from the pairwise models described above. […]
where Ak and Bk are the k^th animal in the individual treatment groups and ABk is the k^th animal in combination treatment group. […] The standard error of the synergy score was calculated as the square root of the sum of squared standard errors across groups A, B, and AB. […]

SW620 cancer cells = assay: In vitro combination study with Compound 1, Cell Titer-Glo (ATP) cell viability, 72 h; format: cell-based; conditions: Table 5 drug combined with Compound 1; 72 h;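 further: Ten-by-ten dose matrices of both drugs in 384-well plates, luminescent ATP read-out, synergy evaluated against single-agent and DMSO vehicle controls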
Description: as §10, §11, §12, §13, §14, §15, §16, §17

PHTX-09C (Colorectal) = assay: In vivo combination study, Patient Derived Xenograft; design: species or system mouse; conditions: PHTX-09C (155 mm^3)
CALU6 (Lung) = assay: In vitro combination study for selected compounds, additional cell lines; format: cell-based; conditions: drug combined with Compound 1
Description: (§9) In vitro anti-proliferative effects of selected compounds were tested in additional cell lines, including ovarian cancer (SKOV3) and pancreatic cancer (MIA-PACA-2) cell lines.

[3] = system: ovarian cancer (SKOV3) cell line; assay: as above; format: cell-based; conditions: drug combined with Compound 1
Description: as §9

[4] = system: pancreatic cancer (MIA-PACA-2) cell line; assay: as above; format: cell-based; conditions: drug combined with Compound 1
Description: as §9

H-1650 (Lung) = assay: as above; format: cell-based; conditions: drug combined with Compound 1
Description: as §9

PHTX-11C = assay: In vivo combination study, xenograft; design: species or system mouse; conditions: PHTX-11C (270 mm^3)
[5] = Compound 1 40 mg/kg once daily Day 1-21, drug 15 mg/kg intravenously Days 1-3, 8-10, 15-17
[6] = Compound 1 40 mg/kg once daily Day 1-21, drug 25 mg/kg intravenously Days 1-3, 8-10, 15-17
[7] = Compound 1 60 mg/kg once daily Day 1-21, drug 15 mg/kg intravenously Days 1-3, 8-10, 15-17
[8] = Compound 1 60 mg/kg once daily Day 1-21, drug 25 mg/kg intravenously Days 1-3, 8-10, 15-17

CC(=O)O[C@@]12CO[C@@H]1C[C@H](O)[C@@]1(C)C(=O)[C@H](O)C3=C(C)[C@@H](OC(=O)[C@H](O)[C@@H](NC(=O)OC(C)(C)C)c4ccccc4)C[C@@](O)([C@@H](OC(=O)c4ccccc4)[C@H]21)C3(C)C [Docetaxel]
Result (combination with Compound 1, tumor growth) (PHTXM-90Es (Esophagus); PHTXM-90Es (220 mm^3), Compound 1 40 mg/kg once daily Day 1-21, drug 10 mg/kg intravenously once weekly Days 1,8,15): Additive | Result (combination with Compound 1, tumor growth) (PHTXM-90Es (Esophagus); PHTXM-90Es (220 mm^3), Compound 1 60 mg/kg once daily Day 1-21, drug 10 mg/kg intravenously once weekly Days 1,8,15): Additive | Result (combination with Compound 1, tumor growth) ([1]; PHTXM-35Es (150 mm^3) FIG. 4B, Compound 1 40 mg/kg once daily Day 1-21, drug 10 mg/kg intravenously once weekly Days 1,8,15): Synergistic | Result (combination with Compound 1, tumor growth) ([1]; PHTXM-35Es (150 mm^3) FIG. 4B, Compound 1 60 mg/kg once daily Day 1-21, drug 10 mg/kg intravenously once weekly Days 1,8,15): Additive | Result (combination with Compound 1, tumor growth) ([1]; PHTXM-35Es (190 mm^3), Compound 1 40 mg/kg once daily Day 1-21, drug 10 mg/kg intravenously once weekly Days 1,8,15): Synergistic | Result (combination with Compound 1, tumor growth) ([1]; PHTXM-35Es (190 mm^3), Compound 1 60 mg/kg once daily Day 1-21, drug 10 mg/kg intravenously once weekly Days 1,8,15): Synergistic | antitumor activity ([1]; combined with Compound 1, PHTXM-35Es human primary esophagus cancer xenografts, FIG. 4B): strong antitumor activity compared to either single treatment alone | Result (combination with Compound 1, tumor growth) ([2]; PHTX-79Es (135 mm^3) FIG. 5A, Compound 1 40 mg/kg once daily Day 1-21, drug 10 mg/kg intravenously once weekly Days 1,8,15): Synergistic | Result (combination with Compound 1, tumor growth) ([2]; PHTX-79Es (135 mm^3) FIG. 5A, Compound 1 60 mg/kg once daily Day 1-21, drug 10 mg/kg intravenously once weekly Days 1,8,15): additive | antitumor activity ([2]; FIG. 5A): strong antitumor activity compared to either single treatment alone | Call, anti-proliferative effect of combination with Compound 1, HCT116 (HCT116 cancer cells): Additivity (0.7 to 1.3) | Call, anti-proliferative effect of combination with Compound 1, COLO205 (COLO205 cancer cells): Additivity (0.7 to 1.3) | Call, anti-proliferative effect of combination with Compound 1, H460 (H460 cancer cells): Additivity (0.7 to 1.3) | Call, anti-proliferative effect of combination with Compound 1, A549 (A549 cancer cells): Subadditivity (1.3 to 2) | Result (combination with Compound 1, tumor growth) (DU-145 (Prostate)): Additive | Call, anti-proliferative effect of combination with Compound 1, SW620 (SW620 cancer cells): Synergy (0 to 0.7)

O=c1[nH]cc(F)c(=O)[nH]1 [Fluorouracil]
Result (combination with Compound 1, tumor growth) (PHTXM-90Es (Esophagus); PHTXM-90Es (185 mm^3), Compound 1 60 mg/kg once daily Day 1-21, drug 25 mg/kg intravenously Days 1-3, 8-10, 15-17): Additive | Result (combination with Compound 1, tumor growth) ([1]; PHTXM-35Es (240 mm^3), Compound 1 60 mg/kg once daily Day 1-21, drug 25 mg/kg intravenously Days 1-3, 8-10, 15-17): Additive | Result (combination with Compound 1, tumor growth) (PHTX-09C (Colorectal); [5]): Additive | Result (combination with Compound 1, tumor growth) (PHTX-09C (Colorectal); [6]): Additive | Result (combination with Compound 1, tumor growth) (PHTX-09C (Colorectal); [7]): Additive | Result (combination with Compound 1, tumor growth) (PHTX-09C (Colorectal); [8]): subadditive | Result (combination with Compound 1, tumor growth) ([2]; PHTXM-79Es (160 mm^3), Compound 1 60 mg/kg once daily Day 1-21, drug 25 mg/kg intravenously Days 1-3, 8-10, 15-17): Synergistic | antitumor activity ([2]; FIG. 5B): strong antitumor activity compared to either single treatment alone | In vitro combination effect with Compound 1, Lung CALU6 (CALU6 (Lung)): Synergy | In vitro combination effect with Compound 1, Ovary SKOV3 [3]: Additive | In vitro combination effect with Compound 1, Pancreas MIA-PACA-2 [4]: Additive | In vitro combination effect with Compound 1, Lung H-1650 (H-1650 (Lung)): Additive | Result (combination with Compound 1, tumor growth) (PHTX-11C; [5]): Additive | Result (combination with Compound 1, tumor growth) (PHTX-11C; [6]): Additive | Result (combination with Compound 1, tumor growth) (PHTX-11C; [7]): Additive | Result (combination with Compound 1, tumor growth) (PHTX-11C; [8]): subadditive
